Earlier results as cited in US8415273B2, “Broadleaf perennial weed control agent for grass, and method for controlling broadleaf perennial weeds in grass” (Nippon Soda Co., Ltd., priority 2007, dated 2013).

Experiments:
[1] = tested on: turf grasses such as Zoysia japonica and Zoysia tenuifolia; settings: soil-based herbicide
[2] = tested on: broadleaf annual weeds such as chickweed and gramineous weeds such as crabgrass

NC(=O)c1nc(-c2ccccc2)n(-c2ccc(Cl)c(COCC(F)(F)C(F)(F)F)c2)n1 [flupoxam, 1-[4-chloro-3-[(2,2,3,3,3-pentafluoropropoxy)methyl]phenyl]-5-phenyl-1H-1,2,4-triazole-3-carboxamide]
Detrimental effects on turf grasses [1]: no detrimental effects
Control action on annual weeds in grass [2]: powerful control action
